Laboratory results published in the supplement of paper PMC10307832.

Tests used:
Test in all cases: relative viability (nuclei count vs DMSO), 5 days (fraction); higher = more cells survive
AZ505 + Pemetrexed = compound: C1CCC(CC1)N(CCNCCC2=C3C(=C(C=C2)O)NC(=O)CO3)C(=O)CCNCCC4=CC(=C(C=C4)Cl)Cl [AZ505] + Nc1nc2[nH]cc(CCc3ccc(C(=O)N[C@@H](CCC(=O)O)C(=O)O)cc3)c2c(=O)[nH]1 [Pemetrexed] (partner 0.2 µM)
Summary of the method: (§1)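 The day after seeding in 1536-well plates, lung cancer cell lines were treated by pin tool with a single drug, or with a fixed anchor-drug dose together with five library-drug doses (not always all listed) in √10 steps. After 5 days, a combined fix-and-stain solution (final 0.05% Triton X-100, 1% formaldehyde, 1 ug/ml Hoechst) was added. Nuclei counted on 4× images gave relative viability as treated counts over vehicle counts, reported as the median of duplicate plates.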

Dactolisib + Lapatinib = compound: Cn1c(=O)n(-c2ccc(C(C)(C)C#N)cc2)c2c3cc(-c4cnc5ccccc5c4)ccc3ncc21 [Dactolisib] + CS(=O)(=O)CCNCc1ccc(-c2ccc3ncnc(Nc4ccc(OCc5cccc(F)c5)c(Cl)c4)c3c2)o1 [Lapatinib] (partner 2 µM)
Summary of the method: as §1

AZ505 + Dasatinib = compound: C1CCC(CC1)N(CCNCCC2=C3C(=C(C=C2)O)NC(=O)CO3)C(=O)CCNCCC4=CC(=C(C=C4)Cl)Cl [AZ505] + Cc1nc(Nc2ncc(C(=O)Nc3c(C)cccc3Cl)s2)cc(N2CCN(CCO)CC2)n1 [Dasatinib] (partner 0.075 µM)
Summary of the method: as §1

AZ505 + Linsitinib = compound: C1CCC(CC1)N(CCNCCC2=C3C(=C(C=C2)O)NC(=O)CO3)C(=O)CCNCCC4=CC(=C(C=C4)Cl)Cl [AZ505] + C[C@]1(O)C[C@@H](c2nc(-c3ccc4ccc(-c5ccccc5)nc4c3)c3c(N)nccn32)C1 [Linsitinib] (partner 1 µM)
Summary of the method: as §1

Row | Cell Line | relative viability (AZ505 + Pemetrexed; first compound 0.08 µM) | relative viability (AZ505 + Pemetrexed; first compound 0.253 µM) | relative viability (AZ505 + Pemetrexed; first compound 0.8 µM) | relative viability (AZ505 + Pemetrexed; first compound 2.53 µM) | relative viability (AZ505 + Pemetrexed; first compound 8 µM) | relative viability (Dactolisib + Lapatinib; first compound 0.002 µM) | relative viability (Dactolisib + Lapatinib; first compound 0.006325 µM) | relative viability (Dactolisib + Lapatinib; first compound 0.02 µM) | relative viability (Dactolisib + Lapatinib; first compound 0.06325 µM) | relative viability (Dactolisib + Lapatinib; first compound 0.2 µM) | relative viability (AZ505 + Dasatinib; first compound 0.08 µM) | relative viability (AZ505 + Dasatinib; first compound 0.253 µM) | relative viability (AZ505 + Dasatinib; first compound 0.8 µM) | relative viability (AZ505 + Dasatinib; first compound 2.53 µM) | relative viability (AZ505 + Dasatinib; first compound 8 µM) | relative viability (AZ505 + Linsitinib; first compound 0.08 µM) | relative viability (AZ505 + Linsitinib; first compound 0.253 µM) | relative viability (AZ505 + Linsitinib; first compound 0.8 µM) | relative viability (AZ505 + Linsitinib; first compound 2.53 µM) | relative viability (AZ505 + Linsitinib; first compound 8 µM)
1 | NCI-H2009 | 1.05 | 1.01 | 0.984 | 1.06 | 1.01 | 1.1 | 1.01 | 0.95 | 0.9 | 0.327 | 0.221 | 0.267 | 0.219 | 0.237 | 0.242 | 1.1 | 1.22 | 1.12 | 1.11 | 1.15
2 | HCC-15 | 0.209 | 0.231 | 0.22 | 0.218 | 0.24 | 0.752 | 0.884 | 0.755 | 0.594 | 0.367 | 0.513 | 0.581 | 0.654 | 0.524 | 0.618 | 0.877 | 0.909 | 0.842 | 0.837 | 0.919
3 | COR-L23 | 0.185 | 0.204 | 0.201 | 0.185 | 0.186 | 1.39 | 0.864 | 0.765 | 0.299 | 0.295 | 0.351 | 0.427 | 0.358 | 0.383 | 0.475 | 0.684 | 0.772 | 0.749 | 0.855 | 0.692
4 | HCC-78 | – | – | 0.916 | 0.904 | 0.918 | 0.769 | 0.753 | 0.612 | 0.47 | 0.493 | 0.336 | 0.411 | 0.333 | 0.445 | 0.425 | – | 0.642 | 0.571 | 0.619 | 0.7
5 | NCI-H2087 | 0.616 | 0.614 | 0.691 | 0.741 | 0.696 | 1.21 | 1.16 | 1.23 | 0.855 | 0.563 | 0.832 | 0.669 | 0.808 | 0.551 | 0.884 | 0.986 | 0.846 | 0.986 | 0.932 | 0.973
6 | BEN | 0.682 | 0.678 | 0.871 | 0.746 | 0.786 | 0.882 | 0.624 | 0.657 | 0.408 | 0.274 | 0.359 | 0.327 | 0.386 | 0.355 | 0.296 | 0.735 | 1.1 | 0.904 | 0.891 | 1.12
7 | EKVX | – | 0.385 | 0.384 | 0.41 | 0.403 | 0.242 | 0.189 | 0.212 | 0.164 | 0.129 | 0.556 | 0.543 | 0.539 | 0.494 | 0.504 | 0.963 | 1.15 | 0.951 | 1.04 | 1.06
8 | LXF-289 | 0.84 | 0.92 | 0.785 | 0.932 | 0.903 | 0.92 | 0.906 | 0.916 | 0.884 | 0.731 | 0.231 | 0.189 | 0.169 | 0.249 | 0.181 | 0.884 | – | 0.973 | 0.943 | 0.96
